# Results from publication PMC9090415, “Discovery of small molecule inhibitors of Plasmodium falciparum apicoplast DNA polymerase” (Journal of Enzyme Inhibition and Medicinal Chemistry, 2022).
# Molecular target: P. falciparum apicoplast DNA polymerase (Pf-apPOL) (Plasmodium falciparum, UniProt Q8ILY1)
# Assay: Fluorescence-based high-throughput DNA polymerase assay (molecular beacon), primary screen and dose-response;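 for % inhibition ApPOL 90': test concentration in µM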;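 for % inhibition apPOL 180': test concentration in µM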
# Type: biochemical
# Method in brief: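 Single-point screening used 10 µM compound with 20 nM polymerase, 20 nM hairpin substrate and 6 µM dNTPs for 90 min at 25 °C. Confirmatory titrations (2.5–80 µM) followed fluorescence at three times, and IC50 was derived from a fit including a cooperativity term n.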
# Sequence of P. falciparum apicoplast DNA polymerase (Pf-apPOL) (Q8ILY1 entry or part of it): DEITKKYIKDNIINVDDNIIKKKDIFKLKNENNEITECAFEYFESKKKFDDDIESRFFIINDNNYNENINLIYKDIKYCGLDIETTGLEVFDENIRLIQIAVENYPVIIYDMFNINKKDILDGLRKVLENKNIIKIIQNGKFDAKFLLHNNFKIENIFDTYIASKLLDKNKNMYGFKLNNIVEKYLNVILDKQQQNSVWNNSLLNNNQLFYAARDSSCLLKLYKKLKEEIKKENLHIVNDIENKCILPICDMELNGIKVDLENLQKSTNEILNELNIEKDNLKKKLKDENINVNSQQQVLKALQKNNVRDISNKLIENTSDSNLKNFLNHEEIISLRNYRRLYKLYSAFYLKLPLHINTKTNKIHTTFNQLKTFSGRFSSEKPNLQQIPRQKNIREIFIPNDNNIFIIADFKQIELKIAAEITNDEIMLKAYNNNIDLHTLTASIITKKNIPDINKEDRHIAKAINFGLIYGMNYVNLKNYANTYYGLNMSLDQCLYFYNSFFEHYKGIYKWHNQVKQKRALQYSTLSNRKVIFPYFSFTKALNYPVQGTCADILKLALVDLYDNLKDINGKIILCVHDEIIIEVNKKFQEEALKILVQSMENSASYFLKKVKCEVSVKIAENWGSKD
smiles,measurement,setting,value
COc1ccc2c(c1)CCc1c-2nc2ccc(Br)cc2c1C(=O)O [KU0059417],DNA Pol,"'DNA Pol'; screening value, unit not given; 90 min, 10 µM",29
same,% inhibition Apo pol 10',DRC-1; 10'; concentration 2.5,25.2919%
same,% inhibition Apo pol 10',DRC-1; 10'; concentration 5,33.9692%
same,% inhibition Apo pol 10',DRC-1; 10'; concentration 10,45.4557%
same,% inhibition Apo pol 10',DRC-1; 10'; concentration 20,55.4931%
same,% inhibition Apo pol 10',DRC-1; 10'; concentration 40,69.0477%
same,% inhibition Apo pol 10',DRC-1; 10'; concentration 80,75.6745%
same,% inhibition Apol 90',DRC-1; 90'; concentration 2.5,11.1508%
same,% inhibition Apol 90',DRC-1; 90'; concentration 5,18.7068%
same,% inhibition Apol 90',DRC-1; 90'; concentration 10,30.3823%
same,% inhibition Apol 90',DRC-1; 90'; concentration 20,41.2946%
same,% inhibition Apol 90',DRC-1; 90'; concentration 40,54.5207%
same,% inhibition Apol 90',DRC-1; 90'; concentration 80,62.4129%
same,% inhibition apPOL 180',DRC-1; 180'; concentration 2.5,3.289%
same,% inhibition apPOL 180',DRC-1; 180'; concentration 5,10.0066%
same,% inhibition apPOL 180',DRC-1; 180'; concentration 10,20.2825%
same,% inhibition apPOL 180',DRC-1; 180'; concentration 20,30.8503%
same,% inhibition apPOL 180',DRC-1; 180'; concentration 40,43.5885%
same,% inhibition apPOL 180',DRC-1; 180'; concentration 80,50.0867%
same,% inhibition Apo pol 5',"DRC-2, 5', concentration 2.5",21%
same,% inhibition Apo pol 5',"DRC-2, 5', concentration 5",27%
same,% inhibition Apo pol 5',"DRC-2, 5', concentration 10",34%
same,% inhibition Apo pol 5',"DRC-2, 5', concentration 20",40%
same,% inhibition Apo pol 5',"DRC-2, 5', concentration 40",53%
same,% inhibition Apo pol 5',"DRC-2, 5', concentration 80",60%
same,% inhibition Apol 40',"DRC-2, 40', concentration 2.5",17%
same,% inhibition Apol 40',"DRC-2, 40', concentration 5",24%
same,% inhibition Apol 40',"DRC-2, 40', concentration 10",33%
same,% inhibition Apol 40',"DRC-2, 40', concentration 20",39%
same,% inhibition Apol 40',"DRC-2, 40', concentration 40",54%
same,% inhibition Apol 40',"DRC-2, 40', concentration 80",68%
same,% inhibition ApPOL 90',"DRC-2, 90', concentration 2.5",15%
same,% inhibition ApPOL 90',"DRC-2, 90', concentration 5",22%
same,% inhibition ApPOL 90',"DRC-2, 90', concentration 10",31%
same,% inhibition ApPOL 90',"DRC-2, 90', concentration 20",37%
same,% inhibition ApPOL 90',"DRC-2, 90', concentration 40",52%
same,% inhibition ApPOL 90',"DRC-2, 90', concentration 80",69%
same,% inhibition apPOL 180',"DRC-2, 180', concentration 2.5",7%
same,% inhibition apPOL 180',"DRC-2, 180', concentration 5",13%
same,% inhibition apPOL 180',"DRC-2, 180', concentration 10",20%
same,% inhibition apPOL 180',"DRC-2, 180', concentration 20",25%
same,% inhibition apPOL 180',"DRC-2, 180', concentration 40",42%
same,% inhibition apPOL 180',"DRC-2, 180', concentration 80",64%
same,DNA Pol,"primary screen hit value, DNA Pol (186 hits); 90 min, 10 µM",29
"COCC(=O)Nc1c(-c2cccc(F)c2)nc2cc(C)ccn12 [Molecule 44, COCC(=O)Nc1c(nc2n1ccc(c2)C)c1cccc(c1)F]",% inhibition Apo pol 10',DRC-1; 10'; concentration 2.5,6.785%
same,% inhibition Apo pol 10',DRC-1; 10'; concentration 5,30.033%
same,% inhibition Apo pol 10',DRC-1; 10'; concentration 10,50.0286%
same,% inhibition Apo pol 10',DRC-1; 10'; concentration 20,55.8788%
same,% inhibition Apo pol 10',DRC-1; 10'; concentration 40,80.2368%
same,% inhibition Apo pol 10',DRC-1; 10'; concentration 80,83.5036%
same,% inhibition Apol 90',DRC-1; 90'; concentration 2.5,1.502%
same,% inhibition Apol 90',DRC-1; 90'; concentration 5,18.1602%
same,% inhibition Apol 90',DRC-1; 90'; concentration 10,35.5455%
same,% inhibition Apol 90',DRC-1; 90'; concentration 20,42.2252%
same,% inhibition Apol 90',DRC-1; 90'; concentration 40,74.869%
same,% inhibition Apol 90',DRC-1; 90'; concentration 80,86.4562%
same,% inhibition apPOL 180',DRC-1; 180'; concentration 2.5,-2.445%
same,% inhibition apPOL 180',DRC-1; 180'; concentration 5,8.4449%
same,% inhibition apPOL 180',DRC-1; 180'; concentration 10,23.452%
same,% inhibition apPOL 180',DRC-1; 180'; concentration 20,30.1351%
same,% inhibition apPOL 180',DRC-1; 180'; concentration 40,67.7953%
same,% inhibition apPOL 180',DRC-1; 180'; concentration 80,86.4237%
same,% inhibition Apo pol 5',DRC-2; 5'; concentration 2.5,10%
same,% inhibition Apo pol 5',DRC-2; 5'; concentration 5,29%
same,% inhibition Apo pol 5',DRC-2; 5'; concentration 10,41%
same,% inhibition Apo pol 5',DRC-2; 5'; concentration 20,50%
same,% inhibition Apo pol 5',DRC-2; 5'; concentration 40,52%
same,% inhibition Apo pol 5',DRC-2; 5'; concentration 80,45%
same,% inhibition Apol 40',DRC-2; 40'; concentration 2.5,9%
same,% inhibition Apol 40',DRC-2; 40'; concentration 5,27%
same,% inhibition Apol 40',DRC-2; 40'; concentration 10,40%
same,% inhibition Apol 40',DRC-2; 40'; concentration 20,59%
same,% inhibition Apol 40',DRC-2; 40'; concentration 40,69%
same,% inhibition Apol 40',DRC-2; 40'; concentration 80,69%
same,% inhibition ApPOL 90',DRC-2; 90'; concentration 2.5,8%
same,% inhibition ApPOL 90',DRC-2; 90'; concentration 5,24%
same,% inhibition ApPOL 90',DRC-2; 90'; concentration 10,38%
same,% inhibition ApPOL 90',DRC-2; 90'; concentration 20,58%
same,% inhibition ApPOL 90',DRC-2; 90'; concentration 40,73%
same,% inhibition ApPOL 90',DRC-2; 90'; concentration 80,74%
same,% inhibition apPOL 180',DRC-2; 180'; concentration 2.5,3.16%
same,% inhibition apPOL 180',DRC-2; 180'; concentration 5,15%
same,% inhibition apPOL 180',DRC-2; 180'; concentration 10,27%
same,% inhibition apPOL 180',DRC-2; 180'; concentration 20,51%
same,% inhibition apPOL 180',DRC-2; 180'; concentration 40,73%
same,% inhibition apPOL 180',DRC-2; 180'; concentration 80,77%
same,% inhibition Apol 40',conc. 5; 40'; DRC-2,27%
same,% inhibition apPOL 180',conc. 10; 180'; DRC-2,27%
same,% inhibition Apol 40',conc. 40; 40'; DRC-2,69%
same,% inhibition ApPOL 90',conc. 40; 90'; DRC-2,73%
same,% inhibition apPOL 180',conc. 40; 180'; DRC-2,73%
same,% inhibition Apol 40',conc. 80; 40'; DRC-2,69%
same,DNA Pol,"primary screen value by plate and well; 90 min, 10 µM",43
same,DNA Pol,"primary screen value of the 186 hits; unit not given; 90 min, 10 µM",43
